According to US7122668B2, “Platinum complexes and their use in therapy” (priority 2002, dated 2006):

Columns and labels:
plasmid pS16-hGH DNA = experiment: Determination of Pt-DNA adducts by EtBr fluorescence; format: binding; conditions: DNA modified 24 hr
Experimental: A plasmid (4.8 kbp) containing a gene coding for human growth hormone, plasmid pS16-hGH, was prepared as previously described^(23). The freshly prepared DNA was analyzed by agarose gel (1%) electrophoresis using post-staining with SYBR Green I fluorescent dye (Molecular Probes, Eugene, Oreg.). […] The ratio of absorbance at 260 nm to that at 280 nm was always between 1.8 and 1.9.
DNA were modified by the platinum complexes in 10 mM NaClO4 (pH 7.0) at 37° C. in the dark for 24 hr. Measurements of EtBr fluorescence were performed on an LS50B luminescence spectrometer (Perkin Elmer, Norwalk, Conn.). Fluorescence measurements of DNA modified by platinum in the presence of EtBr were performed using the excitation wavelength of 546 nm (slit 10 run) and emission wavelength of 590 nm (slit 10 nm) at 25° C. The concentrations were 0.01 mg/ml for DNA and 0.04 mg/ml for EtBr, which corresponded to the saturation of all intercalation sites of EtBr in DNA.
EtBr, as the fluorescent probe, was used to distinguish between perturbations induced in DNA by adducts of platinum (II) compounds^(14). Binding of EtBr by intercalation is blocked in a stoichiometric manner by formation of the bifunctional adducts, as of Cis-Pt, which results in a loss of fluorescence intensity. On the other hand, formation of monofunctional adducts results only in a slight decrease of EtBr fluorescence.

41M = experiment: Microculture tetrazolium (MTS) cell survival assay; format: cell-based; conditions: 24 hours incubation
Experimental: (§1) Cytotoxicity of the synthesized complexes was also tested by the MTS method^(21). Accordingly, the compounds were incubated for 24 hours with the corresponding cell lines and the cell survival in compound-treated cultures was evaluated.
(§2) The complexes were incubated for 24 hours with the above mentioned cell lines and the cell survival in compound-treated cultures was evaluated by the (microculture tetrazolium) MTS method as previously reported.

A2780cisR = experiment: Microculture tetrazolium (MTS) cell survival assay; format: cell-based
Experimental: as §1, §2

41McisR = experiment: Microculture tetrazolium (MTS) cell survival assay; format: cell-based
Experimental: as §1, §2

CH1cisR = experiment: Microculture tetrazolium (MTS) cell survival assay; format: cell-based
Experimental: as §1, §2

CH1 = experiment: Microculture tetrazolium (MTS) cell survival assay; format: cell-based; conditions: 24 hours incubation
Experimental: as §1, §2

A2780 = experiment: Microculture tetrazolium (MTS) cell survival assay; format: cell-based; conditions: 24 hours incubation
Experimental: as §1, §2

C-26 cells [1] = experiment: Platinum complex intracellular accumulation (FAAS); format: cell-based, human; conditions: C-26, 24 hr
Experimental: (§3) Cells were seeded for 48 hr before one of the complexes was added to the culture medium. After 24 hr of exposure, the complexes were removed and the cells washed twice with ice-cold PBS and pelleted. The cells (1*10^6) were dried and mineralized by heating for 10 min in 65% HNO3 (BDH, England)^(22). Samples were dissolved in de-ionized water and each sample was measured at two different dilutions by flameless Zeeman atomic absorption spectrometer (FAAS). The calibration curves included 5 standards of K2PtCl4 stock solution with concentrations ranging from 50 to 250 ng platinum per ml. Platinum content was expressed as picomoles platinum per 1*10^6 cells.
(§4) The Pt content associated with the cells was measured by Atomic Absorption Spectroscopy (AAS).

OV-1063 cells [2] = experiment: Platinum complex intracellular accumulation (FAAS); format: cell-based, human; conditions: OV-1063, 24 hr
Experimental: as §3, §4

C-26 cells [3] = experiment: Determination of Pt-DNA adducts by FAAS; format: cell-based, human
Experimental: (§5) Cells were seeded for 48 hr before one of the drugs was added to the culture medium. After 24 hr of exposure, the complexes were removed and the cells washed twice with ice-cold PBS and pelleted. DNA from platinum-containing material (2*10^6 cells) was extracted from the cell pellet by QIAamp DNA Blood Kit (QIAGEN, Germany) according to the manufacture instructions. DNA yield was determined by measuring the concentration of DNA in the eluate by absorbance at 260 nm.

OV-1063 cells [4] = experiment: Determination of Pt-DNA adducts by FAAS; format: cell-based, human
Experimental: as §5

[5] = test system: caspase-3 in OV-1063 cells; experiment: EnzChek Caspase-3 assay; format: cell-based, human
Description: (2) By the EnzChektm Caspase-3 Assay Kit (Molecular probes, Eugene, Oreg.). This Kit allows the detection of apoptosis by assaying for increases in caspase-3 and other DEVD-specific protease activities (e.g., caspase-7). The basis for the assay is rodamine 110 bis-(N-CBZ-aspartil-L-glutarnyl-L-valyl-aspartic acid amide) (Z-DEVD-R110). This substrate is a bisamide derivative of rhodamine 110(R110) containing DEVD peptides covalently linked to each of R110's amino groups. Upon enzymatic cleavage, the non-fluorescent bisamide substrate converted to the fluorescent R110, which can be quantified by fluorescence microplate reader using excitation at 485±10 nm and emission detection at 535±10 nm.
(12) (5 μM and 7.5 μM, respectively) for 5 or 16 hr. Both “induced” and “control” cells were then harvested and lysed. Enzyme reactions were performed in 96-well plates with 50 μg of cytosolic proteins (55 minutes of incubation) and with a final concentration of 25 μM Z-DEVD-R110 substrate as described in the kit protocol.

calf thymus DNA = experiment: DNA binding (calf thymus DNA platination)
Experimental: The formation of calf thymus DNA platination was also examined. To this end, calf thymus DNA was incubated with different compounds (Table 3) in which the following parameters were determined: […]

Question: For “Trans-[PtCl2(4-picoline)(piperazine)].HCl [Complex 13]”, which “decrease of EtBr fluorescence intensity by DNA adducts” value (plasmid pS16-hGH DNA) is on record?
Answer: Its value is “considerable decrease in fluorescence”.

Question: And the IC50 (41M)?
Answer: Its IC50 is 45 ± 3 µM.

Question: What about the IC50 (A2780cisR; 24 hours incubation, MTS) of the same substance?
Answer: Its IC50 is 24 ± 3 µM.

Question: And the “resistance factor (IC50 resistant/IC50 sensitive)” value (shortened to “resistance factor”) (A2780cisR; A2780cisR/A2780)?
Answer: Its value is 2.4.

Question: And the “resistance factor” value (41McisR; 41McisR/41M)?
Answer: Its value is 3.3.

Question: And the IC50 (41McisR; 24 hours incubation, MTS)?
Answer: The IC50 was 147 ± 10 µM.

Question: And the IC50 (CH1cisR; 24 hours incubation, MTS)?
Answer: Its IC50 is 42 ± 3 µM.

Question: And the “resistance factor” value (CH1cisR; CH1cisR/CH1)?
Answer: Its value is 2.6.

Question: And the IC50 (CH1)?
Answer: Its IC50 is 16 ± 2 µM.

Question: And the IC50 (A2780)?
Answer: Its IC50 is 10 ± 3 µM.

Question: And the Penetration to cells (C-26 cells [1])?
Answer: The Penetration to cells was 54461 pmol Pt/1 * 10^6 cells.

Question: What about the Penetration to cells (OV-1063 cells [2]) of the same substance?
Answer: The Penetration to cells was 12307 pmol Pt/1 * 10^6 cells.

Question: What about the Pt-DNA adducts (C-26 cells [3]; C-26, 24 hr) of the same substance?
Answer: The Pt-DNA adducts was 297 pmol Pt/50 μg DNA.

Question: What about the “DNA platination relative to Cis-Pt” value (C-26 cells [3]; C-26 cells) of the same substance?
Answer: Its value is 7 fold.

Question: What about the Pt-DNA adducts (OV-1063 cells [4]; OV-1063, 24 hr) of the same substance?
Answer: Its Pt-DNA adducts is 205 pmol Pt/50 μg DNA.

Question: And the “DNA platination relative to Cis-Pt” value (OV-1063 cells [4]; OV-1063 cells)?
Answer: The value was 7 fold.

Question: And the “caspase-3 activation, increase in fluorescence vs untreated cells” value ([5]; 5 hr, 6.5 μM piperidine complex or 7.5 μM piperazine complex)?
Answer: The value was ~2 fold.

Question: What about the “caspase-3 activation, increase in fluorescence vs untreated cells” value ([5]; 16 hr) of the same substance?
Answer: The value was 3 fold.

Question: And the “% IEC/adduct, frequency of interstrand crosslinks” value (calf thymus DNA)?
Answer: The value was 6%.

Question: And the “unwinding angle per adduct” value (calf thymus DNA)?
Answer: Its value is 17°.

Question: And the “ΔTm, 0.01M Na+” value (calf thymus DNA)?
Answer: The value was “+4.7 0.C”.

Question: And the “t1/2 half time of the binding to calf thymus DNA” value (calf thymus DNA; 10 mM NaClO4, 37° C., ri = 0.08, differential pulse polarography)?
Answer: Its value is 12 min.

Question: What about the “ΔTm, 0.2 M” value (calf thymus DNA; rb = 0.05, 0.2 M) of the same substance?
Answer: Its value is −3.5 0.C.

Question: And the “ΔΔεmax, maximum of the positive CD band at around 275 nm” value (calf thymus DNA; rb = 0.05, difference between control and platinated DNA)?
Answer: Its value is −0.30.
